Experiment [1] deals with T1, PpPHY (PHY region of PpDUC1) (Pycnococcus provasolii, UniProt A0A830HT85).
T1 construct: gene PPROV_000692100; source genome assembly GCA_015473125.1
T1 sequence (A0A830HT85 1-662): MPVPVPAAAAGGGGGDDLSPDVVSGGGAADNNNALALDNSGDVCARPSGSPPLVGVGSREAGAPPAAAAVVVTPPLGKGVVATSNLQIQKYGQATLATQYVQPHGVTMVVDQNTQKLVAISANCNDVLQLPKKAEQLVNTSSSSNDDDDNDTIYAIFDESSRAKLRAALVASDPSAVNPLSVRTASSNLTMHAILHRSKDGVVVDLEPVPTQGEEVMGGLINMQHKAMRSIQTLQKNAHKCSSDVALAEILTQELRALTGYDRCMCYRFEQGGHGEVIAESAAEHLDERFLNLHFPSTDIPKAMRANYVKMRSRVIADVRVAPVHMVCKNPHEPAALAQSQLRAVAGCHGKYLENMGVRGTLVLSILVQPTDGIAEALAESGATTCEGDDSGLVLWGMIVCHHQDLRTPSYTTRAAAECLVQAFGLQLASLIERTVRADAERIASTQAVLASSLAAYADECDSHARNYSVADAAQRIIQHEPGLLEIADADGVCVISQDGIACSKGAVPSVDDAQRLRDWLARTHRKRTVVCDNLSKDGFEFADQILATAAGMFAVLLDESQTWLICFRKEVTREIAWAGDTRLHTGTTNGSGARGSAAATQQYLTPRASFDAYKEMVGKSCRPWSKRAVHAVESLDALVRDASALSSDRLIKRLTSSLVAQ
As to the kind of experiment: UV-Vis photoconversion spectra, acid-urea denaturation and in-gel fluorescence of purified holoprotein. In kind it is binding. The settings on record: covalent; GAF Cys; chromophore co-produced in E. coli (pKT271); HEPES pH 7.5, room temperature.

The target in experiment [2] is T1, PpPHY (PHY region of PpDUC1). As to the kind of experiment: UV-Vis photoconversion spectra of purified holoprotein. The settings on record: chromophore co-produced in E. coli (pKT272); HEPES pH 7.5, room temperature. In kind it is binding.

Take `CC=C1C(=Cc2[nH]c(C=C3N=C(C=C4NC(=O)C(CC)=C4C)C(C)=C3CCC(=O)O)c(CCC(=O)O)c2C)NC(=O)C1C` (centres unmarked) [PCB, phycocyanobilin]: in experiment [1], the “UV-Vis photoconversion spectra, acid-urea denaturation and in-gel fluorescence o” value is “The purified PpPHY covalently bound PCB”.

Consider `C=CC1=C(C)C(=CC2=NC(=Cc3[nH]c(C=C4NC(=O)C(C)C4=CC)c(C)c3CCC(=O)O)C(CCC(=O)O)=C2C)NC1=O` (centres unmarked) [PΦB, phytochromobilin], for which the “UV-Vis photoconversion spectra of purified holoprotein” value in experiment [2] is “PΦB but not BV could be efficiently incorporated into the apo-PpPHY”.

The values are drawn from paper PMC8209157, “Identification of a dual orange/far-red and blue light photoreceptor from an oceanic green picoplankton” (Nature Communications, 2021).
